Test results: patent US8673934B2, “Anti-infective agents and/or immunomodulators used for preventive therapy following an acute cerebrovascular accident” (priority 2002, dated 2014)

Tests used:
[1] = tested on: mouse model of cerebral ischemia (MCAO); stroke-induced immunodepression and bacterial infection; test: Immunomodulating therapy in mouse model of cerebral ischemia (MCAO): lymphopenia, lymphocyte/monocyte function, infections, survival; format: in vivo
Description: (§1) According to the mouse model of cerebral ischemia, mice were operated according to the MCAO. In this operation, the A. cerebri media is occluded for about 60 minutes, leading to a cerebral infarction typical for this model. As a control, we use the so-called Sham-operation, in which the animals are also MCAO-operated, but in which the A. cerebri media is only occluded for about 1 minute. For the rest, the two paradigms are identical. Thus, the perioperative stress can be doubtlessly excluded as a systemic mistake for the following results.
This severe lymphopenia persists at least for 14 days and also affects the spleen and the thymus (FIG. 6:d-g), which constitute essential organs of immunological maturation. Besides the mere numeric decrease, there also occurs a functional impairment with a disturbance of the cytokine secretion capacity after stimulation (FIG. 6: h and j). Besides the disturbance of monocyte function, which manifests as a disturbance of TNF-α secretion for 2 days after LPS-stimulation, one can also detect a lymphocyte alteration after ConA-stimulation; this alteration persisting for 14 days after the stroke and mainly causing a Th1- to Th2-shift (alteration of the IFN-γ/IL4 ratio), which means a loss of pro-inflammatory potential. […] B- and NK-cells only slightly decrease in the blood after the OP-stress. In the spleen and in the thymus, no major stress-induced alterations are detected and the functional parameters of the monocytes and lymphocytes remain at the control level. […] In contrast to this, no infection is found in the control animals (Sham-operated).
Furthermore, the blockade of the SNS by propranolol (30 mg/kg body weight) also prevents the disturbance of function of the remaining monocytes (TNF-α secretion) and of the lymphocytes (IFN-γ/IL-4 ratio) (FIG. 7). The SNS blockade can also prevent the development of infections in the lung (pneumonia) and in the blood (sepsis) (FIG. 7). The dose of propranolol (indicated as mg/kg body weight), which is required for the prevention or drastic reduction of the bacterial infections, also prevents the disturbed INF-γ secretion of the lymphocytes (FIG. 8). To this aim, the administration of propranolol has to be accomplished at a very early stage (immediately up to 12 hours) after the stroke. An application 24 hours after the stroke event has no effect (FIG. 8). An early (before the stroke) chemical sympathicolysis by 6-hydroxydopamin (6-OHDA) as well prevents the stroke-induced, disturbed INF-γ function of the lymphocytes and blocks the severe bacterial infections (FIG. 8).

[2] = tested on: mouse model of cerebral ischemia (MCAO); stroke-induced spontaneous bacterial infection (more than 95% Escherichia coli)
Description: as §1, with “ischemia, a generally accepted model of ischemic stroke,” for “ischemia,”, “identical.” for “identical. Thus, the perioperative stress can be doubtlessly excluded as a systemic mistake for the following results.”

[3] = early (before the stroke) chemical sympathicolysis, FIG. 8
[4] = after experimental stroke in mice, FIG. 7

Which severe bacterial infections [1, 3] does the source give for `NCCc1cc(O)c(O)cc1O` [6-hydroxydopamin (6-OHDA), 6-hydroxydopamin] here?
The severe bacterial infections was “blocks”.

And the “stroke-induced, disturbed INF-γ function of the lymphocytes” value [1, 3]?
Its value is “prevents”.

How did the neurological deficit ([2]; early administration within the first 24 h) turn out when `COc1c(N2C[C@@H]3CCCN[C@@H]3C2)c(F)cc2c(=O)c(C(=O)O)cn(C3CC3)c12` [moxifloxacin, 1-cyclopropyl-6-fluoro-1,4-dihydro-8-methoxy-7-[(4aS,7aS)-octahydro-6H-pyrrolo[3,4-b]-pyridin-6-yl]-4-oxoquinoline-3-carboxylic acid] was run?
The neurological deficit was “drastically reduced”.

What about the “infections (pneumonia, sepsis)” value ([2]; very early (0-12 h) and somewhat later (12-24 h after acute stroke) treatment scheme) of the same molecule?
The value was “prevented”.

And the fever/hyperthermia ([2]; very early (0-12 h) and somewhat later (12-24 h after acute stroke) treatment scheme, FIG. 3)?
Its fever/hyperthermia is “significantly reduced”.

And the “neurological deficit after stroke” value ([2]; very early (0-12 h) and somewhat later (12-24 h after acute stroke) treatment scheme, FIG. 5)?
Its value is “significantly reduced”.

Which results are given for `CC(C)NCC(O)COc1cccc2ccccc12` (centres unmarked) [propranolol]?
disturbance of function of the lymphocytes (IFN-γ/IL-4 ratio) ([1]; 30 mg/kg body weight, FIG. 7): prevents; disturbance of function of the remaining monocytes (TNF-α secretion) ([1]; 30 mg/kg body weight, FIG. 7): prevents; survival after stroke ([1]; 30 mg/kg body weight, FIG. 10): drastically improve; infections ([1]; 30 mg/kg body weight, FIGS. 7 and 8): prevent; development of infections in the lung (pneumonia) and in the blood (sepsis) ([1]; SNS blockade, FIG. 7): prevent; decrease of T- and NK-cells [1, 4]: prevent; degree of B-cell lymphopenia [1, 4]: significantly reduce; effect on bacterial infections and INF-γ secretion of application 24 hours after the stroke event ([1]; application 24 hours after the stroke, FIG. 8): no effect; disturbed INF-γ secretion of the lymphocytes ([1]; dose required for prevention of bacterial infections, administration immediately up to 12 hours after the stroke, FIG. 8): prevents

B1: IFN-γ: pro-inflammatory cytokine, interferon (protein, UniProt P01579 24-161, looked up)
Interferon gamma: QDPYVKEAENLKKYFNAGHSDVADNGTLFLGILKNWKEESDRKIMQSQIVSFYFKLFKNFKDDQSIQKSVETIKEDMNVKFFNSNKKKRDDFEKLTNYSVTDLNVQRKAIHELIQVMAELSPAAKTGKRKRSQMLFRG
B1 was tested. Which “germ number in the lung” value ([1]; 2 μg, FIG. 9) did it give?
Its value is “reduce”.

What about the “germ number in the blood” value ([1]; 2 μg, even more pronounced than in the lung, FIG. 9) of the same molecule?
The value was “reduce”.
